Tested on: HEK293 cells
Assay: Preliminary screening as DNA vectors, GFP transfection of HEK293 cells
Type: cell-based
Conditions: amino lipid/DOPE liposome with 75 ng plasmid DNA (psin-EGFP-IRES-Puro); number of GFP-expressing cells divided by total nuclei (Hoechst)
Procedure, shortened: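 HEK293 cells in DMEM/10% FBS transfected with 75 ng EGFP plasmid per well complexed with amino lipid/DOPE liposomes in pH 5.6 sodium acetate. Hoechst nuclear stain added 20-24 h post-transfection, then cells cultured another 20-24 h. Confocal imaging gives GFP-positive cells as % of total nuclei.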

Compound | Absolute DNA transfection efficiency in HEK293 cells
CCCCCCCCCCCCCCCCCCNc1nc(NCCCN2CCN(C)CC2)nc(SCCCCCCCCCC)n1 [S10N18 D9] | 3.3%
CCCCCCCCCCCCCCCCCCSc1nc(NCCCCCCCCCCCCCCCC)nc(NCCN2CCCC2)n1 [S18N16 D3] | 0.1%
CCCCCCCNc1nc(NCCN2CCOCC2)nc(SCCCCCC)n1 [S6N7 D2] | 0.0%
CCCCCCCCCCCCCCCCCCNc1nc(NCCN2CCCCC2)nc(SCCCCCCCCCC)n1 [S10N18 D4] | 4.9%
CCCCCCCCCCCCCCCCCCSc1nc(NCCN(CC)CC)nc(N(CCCCCCCCCCCC)CCCCCCCCCCCC)n1 [S18^2N12 D7] | 0.0%
CCCCCCCCCCCSc1nc(NCCCCCCCCC)nc(NCCCN2CCOCC2)n1 [S11N9 D8] | 8.6%
CCCCCCCCCCCCCCCCSc1nc(NCCCCCC)nc(NCCN2CCOCC2)n1 [S16N6 D2] | 16.5%
CCCCCCCCCCCCCCSc1nc(NCCCCCCCCCCCCC)nc(NCC2CCN(C)CC2)n1 [S14N13 D10] | 2.2%
CCCCCCCCCCCCCCSc1nc(NCCCCCCCC)nc(NCCN(C)C)n1 [S14N8 D1] | 8.9%
CCCCCCCCCCCCCCCCSc1nc(NCCCCCCCCCCCC)nc(NCCN2CCCC2)n1 [S16N12 D3] | 3.9%
CCCCCCCCCCCCSc1nc(NCCCN(C)C)nc(SCCCCCC)n1 [S6S12 D6] | 13.6%
CCCCCCCCCCCCCCCCCCNc1nc(NCCN(CC)CC)nc(SCCCCCCCCC)n1 [S9N18 D7] | 6.0%
CCCCCCCCCCCCCCCCCCNc1nc(NCCN(C)C)nc(SCCCCCCCCCCCCCCCC)n1 [S16N18 D1] | 0.3%
CCCCCCCCCCCCCCCCCCNc1nc(NCCN2CCN(C)CC2)nc(SCCCCCCCCCCCCCCCCCC)n1 [S18N18 D5] | 0.0%
CCCCCCCCCCCCCCCSc1nc(NCCCCCCCCC)nc(NCCCN(C)C)n1 [S15N9 D6] | 23.1%
CCCCCCCCCCCCN(CCCCCCCCCCCC)c1nc(NCCN(CC)CC)nc(SCCCCCCCC)n1 [S8^2N12 D7] | 0.1%
CCCCCCCCCCCCNc1nc(NCCN(C)C)nc(SCCCCCCCCCCCC)n1 [S12N12 D1] | 7.9%
CCCCCCCCCCCCSc1nc(NCCN2CCCC2)nc(SCCCCCCC)n1 [S7S12 D3] | 9.9%
CCCCCCCCCCCCCCCCCCNc1nc(NCCCN2CCOCC2)nc(SCCCCCCCCCCCCCC)n1 [S14N18 D8] | 0.1%
CCCCCCCCNc1nc(NCCN2CCN(C)CC2)nc(SCCCCCCC)n1 [S7N8 D5] | 22.1%
CCCCCCCCCCCCN(CCCCCCCCCCCC)c1nc(NCCN2CCN(C)CC2)nc(SCCCCCCCCCCC)n1 [S11^2N12 D5] | 0.1%
CCCCCCCCCCCCCCCNc1nc(NCCN2CCCCC2)nc(SCCCCCCCC)n1 [S8N15 D4] | 0.9%
CCCCCCCCCCCCSc1nc(NCCCCCCC)nc(NCCCN2CCN(C)CC2)n1 [S12N7 D9] | 0.3%
CCCCCCCCSc1nc(NCCN2CCCC2)nc(SCCCCCCCC)n1 [S8S8 D3] | 10.4%
CCCCCCCCCCCCNc1nc(NCCN2CCOCC2)nc(SCCCCCCCCCCCC)n1 [S12N12 D2] | 0.0%
CCCCCCCCCCCCCCCCNc1nc(NCCN2CCCC2)nc(SCCCCCCCCCCCC)n1 [S12N16 D3] | 2.6%
CCCCCCCCCCCCSc1nc(NCCN(C)C)nc(SCCCCCC)n1 [S6S12 D1] | 6.3%
CCCCCCCCCCCCCCCCCCNc1nc(NCCN2CCCC2)nc(SCCCCCCCC)n1 [S8N18 D3] | 6.7%
CCCCCCCCCCCCSc1nc(NCCCCCCCCCCC)nc(NCCCN2CCOCC2)n1 [S12N11 D8] | 0.0%

From patent US20230123334A1, “AMINO LIPID COMPOUND, PREPARATION METHOD THEREFOR, AND APPLICATION THEREOF” (SHENZHEN SHENXIN BIOTECHNOLOGY CO., LTD., priority 2020, published 2023)
